# In US10939684B2, “Preparation of sulfonamide-containing antimicrobials and substrate treating compositions of sulfonamide-containing antimicrobials” (NANO SAFE COATINGS INCORPORATED, priority 2015, dated 2021):
# Entries after “also recorded” stand apart in the source; their conditions may differ.
# Legend:
# Type in all cases: cell-based
# [1] = test system: Arthrobacter spp. planktonic cells; test: Static biofilm test in coated polyethylene test tubes, planktonic cell survival; conditions: 48 hours; for Average / A (cfu) / B (cfu) / C (cfu): planktonic cells; for Average: average of A-C; for A (cfu): replicate A; for B (cfu): replicate B; for C (cfu): replicate C; for activity against planktonic cells (in words): initial test and re-challenge (FIG. 9)
# Experimental: (§1) The interior of polyethylene test tubes was coated with the sulfonamide QUAT antimicrobial similarly as in Example 32. Tubes were filled with 2.7 mL of growth media (3 g/L TSB) into which 300 μL of Arthrobacter spp. bacterial culture was inoculated. Planktonic cells were sampled after 48 hours of incubation and agitation by removing 100 μL aliquots from each tube. After 48 hours, the liquid in each tube was removed completely so that biofilm attachment to the interior of the tubes could be assessed. To test for biofilm attachment the tubes were first gently rinsed in a saline solution to remove any loosely attached or residual planktonic cells. Next, 1 mL of saline solution was added to each tube before the tubes were vortexed vigorously for 1 minute to transfer biofilm cells to the collection liquid. Plate counts were then performed on serial dilutions of this collection liquid. Planktonic and biofilm colony counts from triplicate coated tubes were averaged and compared to colony counts from tests of uncoated control tubes carried out in parallel. After 14 days of exposure to ambient air, the tubes used in the above test were subjected to a second static biofilm test as described above, without reapplying the antimicrobial. This test was performed to determine whether the antimicrobial effects of the coating persisted following repeated exposures.
# [2] = test system: Arthrobacter spp. biofilm cells; test: Static biofilm test in coated polyethylene test tubes, biofilm cell survival; conditions: for Average / A (cfu) / B (cfu) / C (cfu): biofilm cells, 48 hours; for Average: average of A-C; for A (cfu): replicate A; for B (cfu): replicate B; for C (cfu): replicate C
# Experimental: as §1
# [3] = test system: Staphylococcus aureus (S. aureus); test: Large-droplet inoculation method, antimicrobial efficacy at solid-air interfaces; conditions: for Average / A (cfu) / B (cfu) / C (cfu): S. aureus, treated polyethylene, load 8.30E+05; for Average: average of A-C; for A (cfu): replicate A; for B (cfu): replicate B; for C (cfu): replicate C; for activity against S. aureus (in words): treated polyethylene coupons, compared to untreated control (FIG. 6)
# Excerpt: (§2) Large-droplet inoculation method (Ronan E. et al, Biofouling 2013, 29, 1087-1096) Many pathogens are able to remain viable during extended periods of desiccation on inanimate surfaces. Long-term survival of pathogens in the inanimate environment pose a significant risk for infection transmission and contamination in high-risk environments such as hospital rooms or food-processing plants. The large-droplet inoculation method was developed to simulate the deposition of bacterial species onto exposed surfaces and to determine the ability of these cells to survive desiccation.
# (§3) For these tests, small surface coupons were first coated with the antimicrobial using the method described above. Bacterial test species were grown overnight in a shaking incubator and cultures
# (§4) were washed twice to replace the growth media with sterile water. 100 μL aliquots of the prepared culture were then inoculated onto multiple coated surfaces and allowed to air-dry within a biological safety cabinet. Drying typically occurred 2-3 hours after inoculation, and surviving cells were enumerated immediately and 24 hours after drying. For enumeration, inoculated coupons were sacrificed in triplicate and placed inside separate tubes containing 5 mL of a 0.9% saline collection liquid. Each coupon was agitated vigorously for 1 minute with a bench-top vortex to transfer cells from the test surface to the collection liquid. Plate counts were then performed on serial dilutions of the collection liquid, and colony counts from triplicate treated surfaces were averaged and compared to colony counts from tests of untreated control surfaces carried out in parallel.
# (§5) A range of bacterial species were used in these tests. Arthrobacter spp., a gram-positive lab strain originally isolated from indoor air was used in the bulk of the testing, as it is known to be highly resistant to desiccation and therefore was used as a model for desiccation-tolerant pathogens. Efficacy tests were also carried out against, for example, gram-negative Escherichia coli (E. coli) and gram-positive Staphylococcus aureus (S. aureus), since they all contain pathogenic strains and have been implicated in major nosocomial outbreaks. […] The following are the tabulated bacterial reduction data: […]
# [4] = test system: Escherichia coli (E. coli); test: as above; conditions: for Average / A (cfu) / B (cfu) / C (cfu): E. coli, treated polyethylene, load 5.05E+07; for Average: average of A-C; for A (cfu): replicate A; for B (cfu): replicate B; for C (cfu): replicate C; for activity against E. coli (in words): treated polyethylene coupons, compared to untreated control (FIG. 6)
# Excerpt: as §2, §3, §4, §5
# Arthrobacter spp. = test: as above; conditions: treated polystyrene; for Average / A (cfu) / B (cfu) / C (cfu): load 1.28E+08; for Average: average of A-C; for A (cfu): replicate A; for B (cfu): replicate B; for C (cfu): replicate C
# Excerpt: as §2, §3, §4, §5
# [5] = initial test, treated polyethylene test tubes, load 7.75E+08
# [6] = rechallenge after 14 days without reapplying, load 8.00E+08
# [7] = listed as 3-(4-benzoylphenoxy)-N,N-dimethyl-N-(3-(2,4,6-trimethylphenyl sulfonamido)propyl)
# [8] = listed as 3-(4-benzoylphenoxy)-N,N-dimethyl-N-(3-(2,4,6-trimethylphenylsulfonamido)propyl)
smiles,measurement,setting,value
"Cc1cc(C)c(S(=O)(=O)NCCC[N+](C)(C)CCCOc2ccc(C(=O)c3ccccc3)cc2)c(C)c1.[Br-] [Example 3c, 3-(4-benzoylphenoxy)-N,N-dimethyl-N-(3-(2,4,6-trimethylphenylsulfonamido)propyl)propan-1-aminium bromide]",Average,[1]; [5],0.00E+00 cfu
same,A (cfu),[1]; [5],0.00E+00 cfu
same,B (cfu),[1]; [5],0.00E+00 cfu
same,C (cfu),[1]; [5],0.00E+00 cfu
same,Average,[1]; [6],0.00E+00 cfu
same,A (cfu),[1]; [6],0.00E+00 cfu
same,B (cfu),[1]; [6],0.00E+00 cfu
same,C (cfu),[1]; [6],0.00E+00 cfu
same,activity against planktonic cells (in words),"[1]; treated polyethylene test tubes, listed as 3-(4-benzoylphenoxy)-N,N-dimethyl-N-(3-(2,4,6-trimethylphenyl sulfonamido)propyl)",excellent activity
same,activity against planktonic cells (in words),"[1]; treated polyethylene test tubes, listed as 3-(4-benzoylphenoxy)-N,N-dimethyl-N-(3-(2,4,6-trimethylphenylsulfonamido)propyl)",complete eradication
same,Average,[2]; [5],0.00E+00 cfu
same,A (cfu),[2]; [5],0.00E+00 cfu
same,B (cfu),[2]; [5],0.00E+00 cfu
same,C (cfu),[2]; [5],0.00E+00 cfu
same,Average,[2]; [6],0.00E+00 cfu
same,A (cfu),[2]; [6],0.00E+00 cfu
same,B (cfu),[2]; [6],0.00E+00 cfu
same,C (cfu),[2]; [6],0.00E+00 cfu
same,activity against biofilm cells / biofilm development (in words),"[2]; treated polyethylene test tubes, 48 hours (FIG. 10)",excellent activity
same,Average,[3]; 3 hours,0.00E+00 cfu
same,A (cfu),[3]; 3 hours,0.00E+00 cfu
same,B (cfu),[3]; 3 hours,0.00E+00 cfu
same,C (cfu),[3]; 3 hours,0.00E+00 cfu
same,Average,[3]; 24 hours,0.00E+00 cfu
same,A (cfu),[3]; 24 hours,0.00E+00 cfu
same,B (cfu),[3]; 24 hours,0.00E+00 cfu
same,C (cfu),[3]; 24 hours,0.00E+00 cfu
same,activity against S. aureus (in words),[3]; [7],excellent activity
same,activity against S. aureus (in words),[3]; [8],eradicated within three hours
same,Average,[4]; 3 hours,0.00E+00 cfu
same,A (cfu),[4]; 3 hours,0.00E+00 cfu
same,B (cfu),[4]; 3 hours,0.00E+00 cfu
same,C (cfu),[4]; 3 hours,0.00E+00 cfu
same,Average,[4]; 24 hours,0.00E+00 cfu
same,A (cfu),[4]; 24 hours,0.00E+00 cfu
same,B (cfu),[4]; 24 hours,0.00E+00 cfu
same,C (cfu),[4]; 24 hours,0.00E+00 cfu
same,activity against E. coli (in words),[4]; [7],excellent activity
same,activity against E. coli (in words),[4]; [8],eradicated within three hours
same,activity against Arthrobacter spp. (in words),Arthrobacter spp.; compared to untreated control (FIG. 3),eradicated within three hours; also recorded: excellent activity
same,Average,Arthrobacter spp.; 3 hours,0.00E+00 cfu
same,A (cfu),Arthrobacter spp.; 3 hours,0.00E+00 cfu
same,B (cfu),Arthrobacter spp.; 3 hours,0.00E+00 cfu
same,C (cfu),Arthrobacter spp.; 3 hours,0.00E+00 cfu
same,Average,Arthrobacter spp.; 24 hours,0.00E+00 cfu
same,A (cfu),Arthrobacter spp.; 24 hours,0.00E+00 cfu
same,B (cfu),Arthrobacter spp.; 24 hours,0.00E+00 cfu
same,C (cfu),Arthrobacter spp.; 24 hours,0.00E+00 cfu
